Results from patent US11827628B2, “Compositions and methods for inhibition of the JAK pathway” (Rigel Pharmaceuticals, Inc., priority 2005, dated 2023).
pIC50: −log10 of the molar value.

System: up-regulation of ICAM-1 (CD54) by IFNγ in U937 human monocytic cells
Test: U937 IFNγ ICAM1 FACS Assay
Type: cell-based
Details: U937 cells stimulated with IFNγ; ICAM-1 expression by FACS; read-out: IC50, Example 44
Outline: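 Readout was the geometric-mean APC anti-ICAM-1 signal by FACS on live U937 monocytic cells, with % live cells also recorded. Cells were exposed to compounds (8 points, 3-fold dilutions, duplicates) for 30 min at 37 °C before 18–24 h of IFNγ stimulation. EC50 values were computed from the dose curve.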

Compound | pIC50
Cc1cc(COc2ccc(Nc3nc(Nc4cc(Cl)c(C)c(S(N)(=O)=O)c4)ncc3F)cc2C)no1 [Compound I-216, N2-(3-Aminosulfonyl-5-chloro-4-methylphenyl)-5-fluoro-N4-[3-methyl-4-(5-methylisoxazol-3-yl)methyleneoxyphenyl]-2,4-pyrimidinediamine] | 5.80
Cc1cc(Nc2nc(Nc3ccc(S(N)(=O)=O)cc3)ncc2F)ccc1OCC#N [Compound I-22, N2-(4-Aminosulfonyl)phenyl-N4-(4-cyanomethoxy-3-methyl)phenyl-5-fluoro-2,4-pyrimidinediamine] | 5.35
Cc1cc(COc2ccc(Nc3nc(Nc4cccc(S(N)(=O)=O)c4)ncc3F)cc2C)no1 [Compound I-238, N2-(3-Aminosulfonylphenyl)-5-fluoro-N4-[3-methyl-4-(5-methylisoxazol-3-yl)methyleneoxyphenyl]-2,4-pyrimidinediamine] | 5.95
N#CCOc1ccc(Nc2nc(Nc3ccc(Cl)c(S(N)(=O)=O)c3)ncc2F)cc1 [Compound I-21, N2-(3-Aminosulfonyl-4-chlorophenyl)-N4-(4-cyanomethoxy)phenyl-5-fluoro-2,4-pyrimidinediamine] | 6.08
Cc1cc(COc2ccc(Nc3nc(Nc4cc(C)c(F)c(S(N)(=O)=O)c4)ncc3F)cc2)no1 [Compound I-217, N2-(3-Aminosulfonyl-4-fluoro-5-methylphenyl)-5-fluoro-N4-[4-(5-methylisoxazol-3-yl)methyleneoxyphenyl]-2,4-pyrimidinediamine] | 6.32
Cc1noc(COc2ccc(Nc3nc(Nc4ccc(S(N)(=O)=O)cc4)ncc3F)cc2)n1 [Compound I-231, N2-(4-Aminosulfonylphenyl)-5-fluoro-N4-[4-(3-methyl-1,2,4-oxadiazol-5-yl)methyleneoxyphenyl]-2,4-pyrimidinediamine] | 5.08
CCN(CC)CCNS(=O)(=O)c1ccc(Nc2ncc(F)c(Nc3ccc(OCc4cc(C)on4)c(C)c3)n2)cc1 [Compound I-245, N2-[4-(2-N,N-Diethylaminoethyl)aminosulfonylphenyl)-5-fluoro-N4-[3-methyl-4-(5-methylisoxazol-3-yl)methyleneoxyphenyl]-2,4-pyrimidinediamine] | 5.38
N2-[3-Aminosulfonyl-4-(4-methylpiperazin-1-yl)phenyl]-5-fluoro-N4-[2-fluoro-4-(5-methylisoxazol-3-yl)methyleneoxyphenyl]-2,4-pyrimidinediamine [Compound I-251] | 5.96
5-Fluoro-N4-[4-(3-methyl-1,2,4-oxadiazol-3-yl)methyleneoxyphenyl]-N2-[(3-N-propanamido)sulfonylphenyl)]-2,4-pyrimidinediamine [Compound I-262] | 5.98
COc1cc(Nc2ncc(F)c(Nc3ccc(OCC#N)cc3)n2)ccc1S(N)(=O)=O [Compound I-28, N2-(4-Aminosulfonyl-3-methoxyphenyl)-N4-(4-cyanomethoxy)phenyl-5-fluoro-2,4-pyrimidinediamine] | 5.72
Cc1cc(COc2ccc(Nc3nc(Nc4cc(Cl)c(C)c(S(N)(=O)=O)c4)ncc3F)cc2F)no1 [Compound I-223, N2-(3-Aminosulfonyl-5-chloro-4-methylphenyl)-5-fluoro-N4-[3-fluoro-4-(5-methylisoxazol-3-yl)methyleneoxyphenyl]-2,4-pyrimidinediamine] | 5.92
CCN(CC)CCNS(=O)(=O)c1cccc(Nc2ncc(F)c(Nc3ccc(OCc4cc(C)on4)c(C)c3)n2)c1 [Compound I-244, N2-[3-(2-N,N-Diethylaminoethyl)aminosulfonylphenyl)-5-fluoro-N4-[3-methyl-4-(5-methylisoxazol-3-yl)methyleneoxyphenyl]-2,4-pyrimidinediamine] | 5.51
Cc1cc(COc2ccc(Nc3nc(Nc4ccc(C)c(S(N)(=O)=O)c4)ncc3F)cc2F)no1 [Compound I-222, N2-(3-Aminosulfonyl-4-methylphenyl)-5-fluoro-N4-[3-fluoro-4-(5-methylisoxazol-3-yl)methyleneoxyphenyl]-2,4-pyrimidinediamine] | 6.08
CCN(CC)CCNS(=O)(=O)c1ccc(Nc2ncc(F)c(Nc3ccc(OCc4csc(C)n4)cc3)n2)cc1 [Compound I-284, N2-[4-(2-N,N-Diethylaminoethyl)aminosulfonylphenyl)-5-fluoro-N4-[4-(2-methylthizol-4-yl)methyleneoxyphenyl]-2,4-pyrimidinediamine] | 5.81
CCN(CC)CCNS(=O)(=O)c1ccc(Nc2ncc(F)c(Nc3cccc(OCc4nc(C)no4)c3)n2)cc1 [Compound I-256, N2-[4-(2-N,N-Diethylaminoethyl)aminosulfonylphenyl)-5-fluoro-N4-[3-(3-methyl-1,2,4-oxadiazol-5-yl)methyleneoxyphenyl]-2,4-pyrimidinediamine] | 4.80
Cc1cc(COc2ccc(Nc3nc(Nc4cccc(S(=O)(=O)N(Cc5oc(=O)oc5C)Cc5oc(=O)oc5C)c4)ncc3F)cc2)no1 [Compound I-248, N2-{3-[N-N-Di-[(5-Methyl-1,3-dioxolene-2-one-4-yl)methylene]]aminosulfonylphenyl}-5-fluoro-N4-[4-(5-methylisoxazol-3-yl)methyleneoxyphenyl]-2,4-pyrimidinediamine] | 5.58
Cc1noc(COc2ccc(Nc3nc(Nc4ccc(F)c(S(N)(=O)=O)c4)ncc3F)cc2)n1 [Compound I-266, N2-(3-Aminosulfonyl-4-fluorophenyl)-5-fluoro-N4-[4-(3-methyl-1,2,4-oxadiazol-5-yl)methyleneoxyphenyl]-2,4-pyrimidinediamine] | 6.08
CCN(CC)CCNS(=O)(=O)c1cccc(Nc2ncc(F)c(Nc3ccc(OCc4cc(C)on4)cc3)n2)c1 [Compound I-241, N2-[3-(2-N,N-Diethylaminoethyl)aminosulfonylphenyl)-5-fluoro-N4-[4-(5-methylisoxazol-3-yl)methyleneoxyphenyl]-2,4-pyrimidinediamine] | 5.54
Cc1nc(COc2ccc(Nc3nc(Nc4ccc(S(N)(=O)=O)cc4)ncc3F)cc2)no1 [Compound I-275, N2-(4-Aminosulfonyl)phenyl-5-fluoro-N4-[4-(5-methyl-1,2,4-oxadiazol-3-yl)methoxy]phenyl-2,4-pyrimidinediamine] | 5.72
Cc1nnc(COc2ccc(Nc3nc(Nc4cccc(S(N)(=O)=O)c4)ncc3F)cc2)o1 [Compound I-277, N2-(3-aminosulfonylphenyl)-5-fluoro-N4-[4-(5-methyl-1,3,4-oxadiazol-2-yl)methyleneoxyphenyl]-2,4-pyrimidinediamine] | 5.83
N#CCOc1ccc(Nc2nc(Nc3cccc(S(N)(=O)=O)c3)ncc2F)cc1 [Compound I-17, N2-(3-Aminosulfonyl)phenyl-N4-(4-cyanomethoxy)phenyl-5-fluoro-2,4-pyrimidinediamine] | 6.44
CNS(=O)(=O)c1cc(Nc2ncc(F)c(Nc3ccc(OCc4cc(C)on4)cc3)n2)ccc1C [Compound I-235, 5-Fluoro-N2-[3-(N-methyl)aminosulfonyl-4-methylphenyl]-N4-[4-(5-methylisoxazol-3-yl)methyleneoxyphenyl]-2,4-pyrimidinediamine] | 5.59
CCN(CC)CCNS(=O)(=O)c1cccc(Nc2ncc(F)c(Nc3ccc(OCc4csc(C)n4)cc3)n2)c1 [Compound I-283, N2-[3-(2-N,N-Diethylaminoethyl)aminosulfonylphenyl)-5-fluoro-N4-[4-(2-methylthizol-4-yl)methyleneoxyphenyl]-2,4-pyrimidinediamine] | 5.53
Cc1cc(COc2ccc(Nc3nc(Nc4ccc(C)c(S(N)(=O)=O)c4)ncc3F)cc2Cl)no1 [Compound I-221, N2-(3-Aminosulfonyl-4-methylphenyl)-N4-[3-chloro-4-(5-methylisoxazol-3-yl)methyleneoxyphenyl]-5-fluoro-2,4-pyrimidinediamine] | 5.35

More lines, now with the values ahead:

pIC50 | Compound
5.77 | N#CCCc1ccc(Nc2nc(Nc3cccc(S(N)(=O)=O)c3)ncc2F)cc1C(F)(F)F [III-31, N4-(4-Cyanoethylene-3-trifluoromethylphenyl)-5-fluoro-N2-(3-aminosulfonylphenyl)-2,4-pyrimidinediamine]
5.19 | Cc1ccc(Nc2ncc(F)c(Nc3ccc(OC4CCCN(C)C4)c(Cl)c3)n2)cc1S(N)(=O)=O (racemic) [II-3, Racemic N2-(3-aminosulfonyl-4-methylphenyl)-N4-{3-chloro-4-[(1-methylpiperidin-3-yl)oxy]phenyl}-5-fluoro-2,4-pyrimidinediamine]
5.86 | Cc1ccc(Nc2ncc(F)c(Nc3ccc(OC4CCN(C)C4)cc3)n2)cc1S(N)(=O)=O (centres unmarked) [II-10, N2-(3-Aminosulfonyl-4-methylphenyl)-5-fluoro-N4-(N-methylpyrrolidin-3-yloxyphenyl)-2,4-pyrimidinediamine]
5.77 | N#CCc1ccc(Nc2nc(Nc3cccc(S(N)(=O)=O)c3)ncc2F)cc1 [III-4, N2-(3-Aminosulfonyl)phenyl-N4-(4-cyanomethyl)phenyl-5-fluoro-2,4-pyrimidinediamine]
5.45 | Cc1ccc(Nc2ncc(F)c(Nc3ccc(OC4CCCN(C)C4)cc3)n2)cc1S(N)(=O)=O (racemic) [II-4, Racemic N2-(3-aminosulfonyl-4-methylphenyl)-5-fluoro-N4-{4-[(1-methylpiperidin-3-yl)oxy]phenyl}-2,4-pyrimidinediamine]
5.65 | N#CCc1ccc(Nc2nc(Nc3ccc(Cl)c(S(N)(=O)=O)c3)ncc2F)cc1 [III-8, N2-(3-Aminosulfonyl-4-chloro)phenyl-N4-(4-cyanomethyl)phenyl-5-fluoro-2,4-pyrimidinediamine]
6.26 | Cc1ccc(Nc2ncc(F)c(Nc3ccc(CCC#N)cc3)n2)cc1S(N)(=O)=O [III-15, N2-(3-Aminosulfonyl-4-methylphenyl)-N4-[4-(cyanoethylene)phenyl]-5-fluoro-2,4-pyrimidinediamine]
5.75 | N#CCCc1ccc(Nc2nc(Nc3ccc(F)c(S(N)(=O)=O)c3)ncc2F)cc1 [III-16, N2-(3-Aminosulfonyl-4-fluorophenyl)-N4-[4-(cyanoethylene)phenyl]-5-fluoro-2,4-pyrimidinediamine]
